Results taken from PubChem BioAssay (NCI).
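Growth conditions: 96-well plates. Treatment: test compound, 48 hours, 5 concentrations. Analysis: linear interpolation between bracketing concentrations; unreached endpoints set to highest concentration. At the GI50, growth is halved. Definition used: TGI = concentration required for complete inhibition of growth.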

How the values were obtained:
Experiment in all cases: NCI-60 cell line screen, 48 h
SW-620 colon = system: SW-620 colon
COLO 205 colon = system: COLO 205 colon
A549 NSCLC = system: A549 NSCLC
SF-539 CNS = system: SF-539 CNS
MOLT-4 leukemia = system: MOLT-4 leukemia
RXF 393 renal = system: RXF 393 renal
HOP-92 NSCLC = system: HOP-92 NSCLC
NCI/ADR-RES ovarian = system: NCI/ADR-RES ovarian
OVCAR-3 ovarian = system: OVCAR-3 ovarian
SK-OV-3 ovarian = system: SK-OV-3 ovarian

Row | Compound | TGI (SW-620 colon) [µM] | TGI (COLO 205 colon) [µM] | TGI (A549 NSCLC) [µM] | TGI (SF-539 CNS) [µM] | TGI (MOLT-4 leukemia) [µM] | TGI (RXF 393 renal) [µM] | TGI (HOP-92 NSCLC) [µM] | TGI (NCI/ADR-RES ovarian) [µM] | TGI (OVCAR-3 ovarian) [µM] | TGI (SK-OV-3 ovarian) [µM] | GI50 (SW-620 colon) [µM] | GI50 (A549 NSCLC) [µM] | GI50 (SF-539 CNS) [µM] | GI50 (RXF 393 renal) [µM] | GI50 (HOP-92 NSCLC) [µM] | GI50 (OVCAR-3 ovarian) [µM] | GI50 (SK-OV-3 ovarian) [µM]
1 | Cc1nnc2sc(-c3ccc(N)cc3)nn12 | > 100 | > 100 | > 100 | > 100 | > 100 | > 100 | > 100 | > 100 | > 100 | > 100 |  |  |  |  |  |  | 
2 | CCOC(=O)C1=C(C)N2CCCOC2(C)C(C(=O)OC)C1c1cccc([N+](=O)[O-])c1 (stereo not given) | > 100 | > 100 | > 100 | > 100 | > 100 | > 100 | > 100 |  | > 100 |  |  |  |  |  |  |  | 
3 | CC(=O)O[C@H]1CC[C@]2(C)[C@H]3C(=O)C=C4[C@@H]5C[C@](C)(C(=O)N6CCCNCC6)CC[C@]5(C)CC[C@@]4(C)[C@]3(C)CC[C@H]2C1(C)C | 3.22 |  | 4.67 | 3 |  | 3.24 | 2.41 |  | 3.29 | 3.48 | 1.67 | 1.82 | 1.62 | 1.66 | 1.08 | 1.76 | 1.87
4 | O=[N+]([O-])/C=C/c1cccc(F)c1 | 8.88 | 8.02 | > 100 | 20.8 |  | 4.32 | 27.6 | 35.2 | 7.38 | 28.2 |  |  |  |  |  |  | 
5 | COc1cc2c(cc1OC)C(C1(O)CCCCC1)NCC2 (stereo not given) | > 100 | > 100 |  |  | > 100 | > 100 | > 100 |  | > 100 | > 100 |  |  |  |  |  |  | 
6 | C=C(/C=C/C=C(/CCC=C(C)C)COC(C)=O)[C@@H]1CC[C@]2([C@H](CCCO)/C(=C(/C)C=O)CC[C@]2(C)O)[C@@H]1O | 22 | 7.06 | 26.2 | 28.5 | 34.9 | 33.1 |  |  |  | 54.5 |  |  |  |  |  |  | 
7 | Cc1c(Cl)c(S(N)(=O)=O)cc(S(N)(=O)=O)c1NC(=O)c1ccc(Cl)cc1 | > 100 | > 100 | > 100 |  | > 100 | > 100 | > 100 | > 100 | > 100 | > 100 |  |  |  |  |  |  | 
8 | NC(Cc1ccc2oc3cc(=O)c4ccccc4c-3nc2c1)C(=O)O (stereo not given) | 80.9 | 21.5 | 62.5 | 54.6 | > 88.3 | 99.8 | > 100 | > 100 | 81.5 | > 100 |  |  |  |  |  |  | 
9 | Nc1nc(Cl)cc(NCCCCO)n1 | > 100 | > 100 | > 100 | > 100 | > 100 | > 100 | > 100 |  | > 10 | > 100 |  |  |  |  |  |  | 
10 | NC(=O)c1nnc2cc(F)c(F)cc2c1N | > 100 | > 100 | > 100 | > 100 | > 100 |  |  | > 100 | > 100 | 82.4 |  |  |  |  |  |  | 
11 | N=C(N)SC1c2ccccc2-c2cc([N+](=O)[O-])ccc21 (stereo not given) | 22.1 | 9.77 | 19.4 | 13.7 | 17.5 | 10.3 | 33.5 | 16 | 7.47 | 18.9 |  |  |  |  |  |  | 
12 | C#CCCCCC#CC1CCCC1C1=CC(=O)c2ccccc21 (stereo not given) | 6.39 | 28.6 | 30 | 21.1 | > 100 | 18.4 | 16.1 |  | 17.8 | 28.7 |  |  |  |  |  |  | 
